Target: human CB2 receptor (CNR2) (Homo sapiens (Human), UniProt P34972)
Test: Radioligand binding assay, human CB2
Conditions: HEK cell membranes expressing human CNR2, [3H]-CP-55,940 radioligand
Method: The affinity of the compounds of the invention for cannabinoid CB1 receptors was determined using recommended amounts of membrane preparations (PerkinElmer) of human embryonic kidney (HEK) cells expressing the human CNRI or CNR2 receptors in conjunction with 1.5 or 2.6 nM [3H]-CP-55,940 (Perkin Elmer) as radioligand, respectively. Binding was performed in binding buffer (50 mM Tris, 5 mM MgCl2, 2.5 mM EDTA, and 0.5% (wt/vol) fatty acid free BSA, pH 7.4 for CB1 receptor and 50 mM Tris, 5 mM MgCl2, 2.5 mM EGTA, and 0.1% (wt/vol) fatty acid free BSA, pH 7.4 for CB2 receptor) in a total volume of 0.2 ml for 1 h at 30° C. shaking. The reaction was terminated by rapid filtration through microfiltration plates coated with 0.5% polyethylenimine (UniFilter GF/B filter plate; Packard). Bound radioactivity was analyzed for Ki using nonlinear regression analysis (Activity Base, ID Business Solution, Limited), with the Kd values for [3H]CP55,940 determined from saturation experiments. The compounds of formula (I) show an excellent affinity for the CB2 receptor.
The compounds according to formula (I) have an activity in the above assay (Ki) between 0.5 nM and 10 μM. Particular compounds of formula (I) have an activity in the above assay (Ki) between 0.5 nM and 3 μM. Other particular compounds of formula (I) have an activity in the above assay (Ki) between 0.5 nM and 100 nM.

human CB2 receptor (CNR2), sequence (P34972 whole entry): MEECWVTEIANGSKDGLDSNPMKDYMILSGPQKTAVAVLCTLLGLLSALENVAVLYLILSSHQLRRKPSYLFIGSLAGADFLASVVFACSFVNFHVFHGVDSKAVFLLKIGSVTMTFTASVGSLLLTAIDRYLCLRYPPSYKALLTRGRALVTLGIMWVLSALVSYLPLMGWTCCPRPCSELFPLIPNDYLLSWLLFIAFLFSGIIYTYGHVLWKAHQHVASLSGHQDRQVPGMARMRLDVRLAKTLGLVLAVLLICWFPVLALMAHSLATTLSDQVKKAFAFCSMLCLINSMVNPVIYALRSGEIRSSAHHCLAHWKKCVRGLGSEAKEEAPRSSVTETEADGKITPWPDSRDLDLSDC

Structure (SMILES) | Ki
CC(C)C[C@H](NC(=O)c1ccc(N2CCCC2)c(OCC2CC2)n1)C(=O)OCCCF [Example 15, 3-Fluoropropyl N-[6-(cyclopropylmethoxy)-5-(pyrrolidin-1-yl)pyridine-2-carbonyl]-L-leucinate] | 40 nM
CCC(CC)(NC(=O)c1ccc(N2CC(F)(F)C2)c(OCC2CC2)n1)C(=O)OCCF [Example 5, 2-Fluoroethyl 2-{[6-(cyclopropylmethoxy)-5-(3,3-difluoroazetidin-1-yl)pyridine-2-carbonyl]amino}-2-ethylbutanoate] | 7 nM
C[C@@H](COCCF)NC(=O)c1ccc(N2CCCC2)c(OCC2CC2)n1 [Example 23, 6-(Cyclopropylmethoxy)-N-[(2S)-1-(2-fluoroethoxy)propan-2-yl]-5-(pyrrolidin-1-yl)pyridine-2-carboxamide] | 490 nM
C[C@@H](COCF)NC(=O)c1ccc(N2CCCC2)c(OCC2CC2)n1 [Example 22, 6-(Cyclopropylmethoxy)-N-[(2S)-1-(fluoromethoxy)propan-2-yl]-5-(pyrrolidin-1-yl)pyridine-2-carboxamide] | 787 nM
COC1CN(c2ccc(C(=O)N[C@H](COCCCF)C(C)C)nc2OCC2CC2)C1 [Example 31, 6-(Cyclopropylmethoxy)-N-[(2S)-1-(3-fluoropropoxy)-3-methylbutan-2-yl]-5-(3-methoxyazetidin-1-yl) pyridine-2-carboxamide] | 247 nM
CC(C)C[C@H](NC(=O)c1ccc(N2CCCC2)c(OCC2CC2)n1)C(=O)OCCF [Example 14, 2-Fluoroethyl N-[6-(cyclopropylmethoxy)-5-(pyrrolidin-1-yl)pyridine-2-carbonyl]-L-leucinate] | 15 nM
CCC(CC)(NC(=O)c1ccc(N2CCCC2)c(OCC2CC2)n1)C(=O)OCF [Example 8, 3- Fluoromethyl 2-{[6-(cyclopropylmethoxy)-5-(pyrrolidin-1-yl)pyridine-2-carbonyl]amino}-2-ethylbutanoate] | 2 nM
CC(C)[C@@H](COCCCF)NC(=O)c1ccc(N2CCCC2)c(OCC2CC2)n1 [Example 21, 6-(Cyclopropylmethoxy)-N-[(2S)-1-(3-fluoropropoxy)-3-methylbutan-2-yl]-5-(pyrrolidin-1-yl)pyridine-2-carboxamide] | 156 nM
CC(C)C[C@H](COCCF)NC(=O)c1ccc(N2CCCC2)c(OCC2CC2)n1 [Example 37, 6-(Cyclopropylmethoxy)-N-[(2R)-1-(2-fluoroethoxy)-4-methylpentan-2-yl]-5-(pyrrolidin-1-yl)pyridine-2-carboxamide] | 288 nM
CCC(CC)(NC(=O)c1ccc(N2CC(OC)C2)c(OCC2CC2)n1)C(=O)OCCCF [Example 3, 3-Fluoropropyl 2-{[6-(cyclopropylmethoxy)-5-(3-methoxyazetidin-1-yl)pyridine-2-carbonyl]amino}-2-ethylbutanoate] | 6 nM
COC1CN(c2ccc(C(=O)N[C@@H](COCCF)CC(C)C)nc2OCC2CC2)C1 [Example 38, 6-(Cyclopropylmethoxy)-N-[(2R)-1-(2-fluoroethoxy)-4-methylpentan-2-yl]-5-(3-methoxyazetidin-1-yl) pyridine-2-carboxamide] | 1300 nM
CCC(CC)(COCCF)NC(=O)c1ccc(N2CC(OC)C2)c(OCC2CC2)n1 [Example 35, 6-(Cyclopropylmethoxy)-N-{3-[(2-fluoroethoxy)methyl]pentan-3-yl}-5-(3-methoxyazetidin-1-yl) pyridine-2-carboxamide] | 62 nM
COC1CN(c2ccc(C(=O)N[C@@H](C)COCCF)nc2OCC2CC2)C1 [Example 32, 6-(Cyclopropylmethoxy)-N-[(2S)-1-(2-fluoroethoxy)propan-2-yl]-5-(3-methoxyazetidin-1-yl)pyridine-2-carboxamide] | 3120 nM
C[C@@H](COCCCF)NC(=O)c1ccc(N2CCCC2)c(OCC2CC2)n1 [Example 24, 6-(Cyclopropylmethoxy)-N-[(2S)-1-(3-fluoropropoxy)propan-2-yl]-5-(pyrrolidin-1-yl)pyridine-2-carboxamide] | 671 nM
CCC(CC)(COCF)NC(=O)c1ccc(N2CC(OC)C2)c(OCC2CC2)n1 [Example 34, 6-(Cyclopropylmethoxy)-N-{3-[(fluoromethoxy)methyl]pentan-3-yl}-5-(3-methoxyazetidin-1-yl) pyridine-2-carboxamide] | 33 nM
CC(C)C[C@H](NC(=O)c1ccc(N2CCCC2)c(OCC2CC2)n1)C(=O)OCF [Example 13, Fluoromethyl N-[6-(cyclopropylmethoxy)-5-(pyrrolidin-1-yl)pyridine-2-carbonyl]-L-leucinate] | 63 nM

Structure (SMILES) | Ki
CCC(CC)(NC(=O)c1ccc(N2CC(OC)C2)c(OCC2CC2)n1)C(=O)OCF [Example 1, Fluoromethyl 2-{[6-(cyclopropylmethoxy)-5-(3-methoxyazetidin-1-yl)pyridine-2-carbonyl]amino}-2-ethylbutanoate] | 2 nM
CCC(CC)(NC(=O)c1ccc(N2CC(C)(F)C2)c(OCC2CC2)n1)C(=O)NCCCF [Example 39, 6-(Cyclopropylmethoxy)-5-(3-fluoro-3-methylazetidin-1-yl)-N-(3-(3-fluoropropylcarbamoyl)pentan-3-yl) picolinamide] | 524 nM
CCC(CC)(NC(=O)c1ccc(N2CC(F)(F)C2)c(OCC2CC2)n1)C(=O)OCF [Example 4, Fluoromethyl 2-{[6-(cyclopropylmethoxy)-5-(3,3-difluoroazetidin-1-yl)pyridine-2-carbonyl]amino}-2-ethylbutanoate] | 6 nM
CC(C)C[C@@H](COCCCF)NC(=O)c1ccc(N2CCCC2)c(OCC2CC2)n1 [Example 18, 6-(Cyclopropylmethoxy)-N-[(2S)-1-(3-fluoropropoxy)-4-methylpentan-2-yl]-5-(pyrrolidin-1-yl) pyridine-2-carboxamide] | 40 nM
CC(C)C[C@@H](COCF)NC(=O)c1ccc(N2CCCC2)c(OCC2CC2)n1 [Example 16, 6-(Cyclopropylmethoxy)-N-[(2S)-1-(fluoromethoxy)-4-methylpentan-2-yl]-5-(pyrrolidin-1-yl)pyridine-2-carboxamide] | 8 nM
COC1CN(c2ccc(C(=O)N[C@H](COCCF)C(C)C)nc2OCC2CC2)C1 [Example 30, 6-(Cyclopropylmethoxy)-N-[(2S)-1-(2-fluoroethoxy)-3-methylbutan-2-yl]-5-(3-methoxyazetidin-1-yl) pyridine-2-carboxamide] | 165 nM
COC1CN(c2ccc(C(=O)N[C@@H](CC(C)C)C(=O)OCCCF)nc2OCC2CC2)C1 [Example 12, 3-Fluoropropyl N-[6-(cyclopropylmethoxy)-5-(3-methoxyazetidin-1-yl)pyridine-2-carbonyl]-L-leucinate] | 46 nM
CCC(CC)(NC(=O)c1ccc(N2CCCC2)c(OCC2CC2)n1)C(=O)OCCF [Example 9, 2-Fluoroethyl 2-{[6-(cyclopropylmethoxy)-5-(pyrrolidin-1-yl)pyridine-2-carbonyl]amino}-2-ethylbutanoate] | 3 nM
CCC(CC)(COCCCF)NC(=O)c1ccc(N2CC(OC)C2)c(OCC2CC2)n1 [Example 36, 6-(Cyclopropylmethoxy)-N-{3-[(3-fluoropropoxy)methyl]pentan-3-yl}-5-(3-methoxyazetidin-1-yl)pyridine-2-carboxamide] | 68 nM
CC(C)C[C@@H](COCCF)NC(=O)c1ccc(N2CCCC2)c(OCC2CC2)n1 [Example 17, 6-(Cyclopropylmethoxy)-N-[(2S)-1-(2-fluoroethoxy)-4-methylpentan-2-yl]-5-(pyrrolidin-1-yl)pyridine-2-carboxamide] | 10 nM
COC1CN(c2ccc(C(=O)N[C@@H](C)COCCCF)nc2OCC2CC2)C1 [Example 33, 6-(Cyclopropylmethoxy)-N-[(2S)-1-(3-fluoropropoxy)propan-2-yl]-5-(3-methoxyazetidin-1-yl)pyridine-2-carboxamide] | 2810 nM
CCC(CC)(NC(=O)c1ccc(N2CC(OC)C2)c(OCC2CC2)n1)C(=O)OCCF [Example 2, 2-Fluoroethyl 2-{[6-(cyclopropylmethoxy)-5-(3-methoxyazetidin-1-yl)pyridine-2-carbonyl]amino}-2-ethylbutanoate] | 2 nM
COC1CN(c2ccc(C(=O)N[C@H](COCF)C(C)C)nc2OCC2CC2)C1 [Example 29, 6-(Cyclopropylmethoxy)-N-[(2S)-1-(fluoromethoxy)-3-methylbutan-2-yl]-5-(3-methoxyazetidin-1-yl) pyridine-2-carboxamide] | 269 nM
CC(C)[C@@H](COCCF)NC(=O)c1ccc(N2CCCC2)c(OCC2CC2)n1 [Example 20, 6-(Cyclopropylmethoxy)-N-[(2S)-1-(2-fluoroethoxy)-3-methylbutan-2-yl]-5-(pyrrolidin-1-yl)pyridine-2-carboxamide] | 60 nM
CC(C)C[C@@H](COCCF)NC(=O)c1ccc(N2CC(F)(F)C2)c(OCC2CC2)n1 [Example 26, 6-(Cyclopropylmethoxy)-5-(3,3-difluoroazetidin-1-yl)-N-[(2S)-1-(2-fluoroethoxy)-4-methylpentan-2-yl]pyridine-2-carboxamide] | 24 nM
COC1CN(c2ccc(C(=O)N[C@@H](CC(C)C)C(=O)OCF)nc2OCC2CC2)C1 [Example 10, Fluoromethyl N-[6-(cyclopropylmethoxy)-5-(3-methoxyazetidin-1-yl)pyridine-2-carbonyl]-L-leucinate] | 336 nM
